Each molecule was assayed against T1, human Y4 receptor (Homo sapiens, UniProt P50391) (assay: NPY4 cAMP HTRF Agonist Assay (inhibitory cAMP assay, Gi activation by Y4 agonism)). Settings: TABLE 2, R2 is Phenyl-CN; read-out: hY4 CAMP EC50.
T1 construct: expressed in transfected cells
Format: cell-based
Description: NPY4 cAMP HTRF Agonist Assay
The functionality of the compound at Y4 receptor was analyzed using a inhibitory cAMP assay (CISBIO, HTRF cAMP kit #62AM4PEC) to measure the Gi activation by Y4 agonism.
The human Y4 stable CHO clonal cells were maintained in culture medium (F-12 containing 10% Fetal Bovine Serum, […] GENETICIN®, […] Zeocin). Before the experiment, 5 μL of 1 uM Forskolin (Sigma, # F6886) and 100 uM IBMX (Sigma, # I5879) in PBS buffer were added into 384-well plates (PE, Proxi-plate) that were pre-dotted with 100 nL compounds. The cells were removed from the flasks by Cellstripper, counted and adjusted to 1.0×10^6 cells/mL in PBS buffer, and added 5 μL/well (5000 cells/well) into the above 384-well plates. The cells were then covered and incubated for 30 minutes at room temperature. After incubation, 5 μL/well of D2-conjugate in HTRF lysis buffer was first added, followed by adding 5 μL/well of anti-cAMP Cryptate in HTRF lysis buffer. The plates were incubated for another 1 hour at room temperature and read on the EnVision Multilabel Plate Reader.
Compounds described herein were tested in the above assay.

T1 sequence (P50391 whole entry): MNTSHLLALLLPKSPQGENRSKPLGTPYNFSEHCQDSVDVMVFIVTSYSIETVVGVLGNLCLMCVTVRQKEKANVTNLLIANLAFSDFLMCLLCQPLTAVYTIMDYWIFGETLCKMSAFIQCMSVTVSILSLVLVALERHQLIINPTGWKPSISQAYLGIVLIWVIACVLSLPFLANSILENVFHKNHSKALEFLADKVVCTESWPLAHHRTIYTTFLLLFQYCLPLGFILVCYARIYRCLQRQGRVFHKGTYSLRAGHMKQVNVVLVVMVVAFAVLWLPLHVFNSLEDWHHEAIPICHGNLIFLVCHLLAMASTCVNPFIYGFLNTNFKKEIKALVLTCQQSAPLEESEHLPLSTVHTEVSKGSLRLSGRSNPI

| EC50 [nM] | Structure (SMILES) |
| --- | --- |
| 39 | CC(C)(O)c1cccc(-c2cnc(N[C@@H]3CCCC[C@H]3N[C@H]3CCCN(c4ccc(C#N)cc4)C3)o2)c1 [Example 207] |
| 468 | N#Cc1ccc(N2CCC[C@H](N[C@@H]3CCCC[C@H]3Nc3cc(-c4ccccn4)ccn3)C2)cc1 [Example 270] |
| 116 | COc1ccccc1-c1ccnc(N[C@@H]2CCCC[C@H]2N[C@H]2CCCN(c3ccc(C#N)cc3)C2)c1 [Example 262] |

Same assay, conditions: TABLE 4, R2 is Pyridinyl-CN; read-out: hY4 CAMP EC50

| EC50 [nM] | Structure (SMILES) |
| --- | --- |
| 392 | N#Cc1ccc(N2C[C@@H]3C[C@H](N[C@@H]4CCCC[C@H]4Nc4cc(-c5cccc(C(N)=O)c5)ccn4)[C@H]2C3)nc1 [Example 299] |

Same assay, conditions: TABLE 5, R2 is Pyridinyl-CF3; read-out: hY4 CAMP EC50

| EC50 [nM] | Structure (SMILES) |
| --- | --- |
| 1 | NC(=O)c1cccc(-c2cnc(N[C@@H]3CCCC[C@H]3N[C@H]3CCCN(c4ccc(C(F)(F)F)cn4)C3)o2)c1 [Example 318] |
| 5 | COC(=O)Nc1cccc(-c2cnc(N[C@@H]3CCCC[C@H]3N[C@H]3CCCN(c4ccc(C(F)(F)F)nc4)C3)o2)c1 [Example 331] |
| 52 | O=C(O)c1cccc(-c2cnc(N[C@@H]3CCCC[C@H]3N[C@H]3CCCN(c4ccc(C(F)(F)F)nc4)C3)o2)c1 [Example 324] |

Same assay, conditions: human Y4 receptor, cAMP; read-out: hY4 CAMP EC50

| EC50 [nM] | Structure (SMILES) |
| --- | --- |
| 0.1 | COC(=O)Nc1cccc(-c2ccnc(N[C@@H]3CCCC[C@H]3N[C@H]3CCCN(c4ccc(-c5noc(C)n5)cc4)C3)c2)c1 [Example 339] |
| 15 | N#Cc1cnc(N2C[C@@H]3C[C@H](N[C@@H]4CCCC[C@H]4Nc4ncc(-c5ccc(OC(F)(F)F)cc5)o4)[C@H]2C3)nc1 [Example 440] |
| 49 | COC(=O)c1cccc(-c2cnc(N[C@@H]3CCCC[C@H]3N[C@H]3CCCN(c4ccc5nc(C)nn5c4)C3)o2)c1 [Example 495] |
| 93 | Cc1nnc(-c2ccc(N3CCC[C@H](N[C@@H]4CCCC[C@H]4Nc4cc(-c5cccc(S(N)(=O)=O)c5)ccn4)C3)cc2)o1 [Example 377] |
| 222 | FC(F)(F)Oc1ccc(-c2cnc(N[C@@H]3CCCC[C@H]3N[C@H]3C[C@@H]4C[C@H]3N(c3ncc(C(F)(F)F)cn3)C4)o2)cc1 [Example 423] |
| 228 | N#Cc1cnc(N2C[C@@H]3C[C@H](N[C@@H]4CCCC[C@H]4Nc4cc(-c5cccc(C(N)=O)c5)ccn4)[C@H]2C3)nc1 [Example 442] |
| 312 | COC(=O)c1cccc(-c2cnc(N[C@@H]3CCCC[C@H]3N[C@H]3CCCN(c4ccc5ncnn5c4)C3)o2)c1 [Example 484] |
| 42 | CNC(=O)c1cccc(-c2ccnc(N[C@@H]3CCCC[C@H]3N[C@H]3CCCN(c4cnc(-c5noc(C)n5)nc4)C3)c2)c1 [Example 464] |
| 128 | C[C@]1(N[C@@H]2CCCC[C@H]2Nc2ncc(-c3ccc(OC(F)(F)F)cc3)o2)CCCN(c2ccc(O)cc2)C1 [Example 509] |
| 306 | Cc1nnc(-c2ccc(N3CCC[C@H](N[C@@H]4CCCC[C@H]4Nc4ncc(-c5cccc(C(N)=O)c5)o4)C3)cc2)o1 [Example 346] |
| 123 | Cc1nc(-c2ccc(N3CCC[C@H](N[C@@H]4CCCC[C@H]4Nc4cc(-c5cccc(OC(F)(F)F)c5)ccn4)C3)cc2)no1 [Example 341] |
| 19 | CS(=O)(=O)Nc1cccc(-c2ccnc(N[C@@H]3CCCC[C@H]3N[C@H]3CCCN(c4cnc(C(F)(F)F)nc4)C3)c2)c1 [Example 415] |
| 23 | NC(=O)c1cccc(-c2ccnc(N[C@@H]3CCCC[C@H]3N[C@H]3CCCN(c4ccc(-n5cccn5)cc4)C3)c2)c1 [Example 511] |
| 225 | Cc1noc(-c2ccc(N3CCC[C@H](N[C@@H]4CCCC[C@H]4Nc4ncc(-c5ccc(OC(F)(F)F)cc5)o4)C3)cc2)n1 [Example 355] |

Same assay, conditions: human Y4 stable CHO clonal cells, forskolin + IBMX; read-out: NPY4 cAMP HTRF Agonist Assay EC50

| EC50 [nM] | Structure (SMILES) |
| --- | --- |
| 82 | N#Cc1ccc(N2CCC[C@H](N[C@@H]3CCCC[C@H]3Nc3cc(-c4ccccc4F)ccn3)C2)cc1 [Example 37, 4-((S)-3-((1R,2R)-2-(4-(2-Fluorophenyl)pyridin-2-ylamino)cyclohexylamino)piperidin-1-yl)benzonitrile tris-trifluoroacetate] |
| 8 | N#Cc1ccc(N2CCC[C@H](N[C@@H]3CCCC[C@H]3Nc3ncc(-c4ccc(OC(F)(F)F)cc4)o3)C2)cc1Cl [Example 38, 2-Chloro-4-((S)-3-((1R,2R)-2-(5-(4-(trifluoromethoxy)phenyl)oxazol-2-ylamino)cyclohexylamino)piperidin-1-yl)benzonitrile bis-trifluoroacetate] |
| 1 | O=[N+]([O-])c1ccc(N2CCC[C@H](N[C@@H]3CCCC[C@H]3Nc3ncc(-c4ccc(O)cc4)o3)C2)cc1 [Example 12, 4-(2-((1R,2R)-2-((S)-1-(4-Nitrophenyl)piperidin-3-ylamino)cyclohexylamino)oxazol-5-yl)phenol] |
| 69 | O=[N+]([O-])c1ccc(N2CCC[C@H](N[C@@H]3CCCC[C@H]3Nc3cc(-c4ccc(OC(F)(F)F)cc4)ccn3)C2)cc1 [Example 24, (1R,2R)—N1-((S)-1-(4-Nitrophenyl)piperidin-3-yl)-N2-(4-(4-(trifluoromethoxy)phenyl)pyridin-2-yl)cyclohexane-1,2-diamine] |
| 150 | Cn1nccc1-c1ccnc(N[C@@H]2CCCC[C@H]2N[C@H]2CCCN(c3ccc(C#N)cc3)C2)c1 [Example 34, 4-((S)-3-((1R,2R)-2-(4-(1-Methyl-1H-pyrazol-5-yl)pyridin-2-ylamino)cyclohexylamino)piperidin-1-yl)benzonitrile tris-trifluoroacetate] |
| 7 | O=[N+]([O-])c1ccc(N2CCC[C@H](N[C@@H]3CCCC[C@H]3Nc3ncc(-c4ccc(F)cc4)o3)C2)cc1 [Example 18, (1R,2R)—N1-(5-(4-Fluorophenyl)oxazol-2-yl)-N2-((S)-1-(4-nitrophenyl)piperidin-3-yl)cyclohexane-1,2-diamine] |
| 297 | N#Cc1ccc(N2CCC[C@H](N[C@@H]3CCCC[C@H]3Nc3nccc(-c4ccc(OC(F)(F)F)cc4)n3)C2)cc1 [Example 59, 4-((S)-3-((1R,2R)-2-(4-(4-(Trifluoromethoxy)phenyl)pyrimidin-2-ylamino)cyclohexylamino)piperidin-1-yl)benzonitrile bis-trifluoroacetate] |
| 384 | FC(F)(F)c1ccn(-c2ccc(N3CCC[C@H](N[C@@H]4CCCC[C@H]4Nc4nccc(-c5ccccc5)n4)C3)cc2)n1 [Example 69, (1R,2R)—N1-(4-Phenylpyrimidin-2-yl)-N2-((S)-1-(4-(3-(trifluoromethyl)-1H-pyrazol-1-yl)phenyl)piperidin-3-yl)cyclohexane-1,2-diamine bis-trifluoroacetate] |
| 57 | Cc1ccn(-c2ccc(N3CCC[C@H](N[C@@H]4CCCC[C@H]4Nc4nccc(-c5ccccc5)n4)C3)cc2)n1 [Example 67, (1R,2R)—N1-((S)-1-(4-(3-Methyl-1H-pyrazol-1-yl)phenyl)piperidin-3-yl)-N2-(4-phenylpyrimidin-2-yl)cyclohexane-1,2-diamine bis-trifluoroacetate] |
| 185 | O=[N+]([O-])c1ccc(N2CCC[C@H](N[C@@H]3CCCC[C@H]3Nc3ncc(-c4ccc(C(F)(F)F)cc4)o3)C2)cc1 [Example 7, (1R,2R)—N1-((S)-1-(4-Nitrophenyl)piperidin-3-yl)-N2-(5-(4-(trifluoromethyl)phenyl)oxazol-2-yl)cyclohexane-1,2-diamine] |
| 288 | c1ccc(-c2ccnc(N[C@@H]3CCCC[C@H]3N[C@H]3CCCN(c4ccc(-n5cncn5)cc4)C3)n2)cc1 [Example 91, (1R,2R)—N1-((S)-1-(4-(1H-1,2,4-Triazol-1-yl)phenyl)piperidin-3-yl)-N2-(4-phenylpyrimidin-2-yl)cyclohexane-1,2-diamine bis-trifluoroacetate] |
| 500 | N#Cc1ccc(N2CCC[C@H](N[C@@H]3CCCC[C@H]3Nc3nccc(-c4ccccc4)n3)C2)cc1 [Example 60, 4-((S)-3-((1R,2R)-2-(4-Phenylpyrimidin-2-ylamino)cyclohexylamino)piperidin-1-yl)benzonitrile bis-trifluoroacetate] |

Same assay, conditions: second TABLE 1, R2 is Phenyl-CF3; read-out: hY4 CAMP EC50

| EC50 [nM] | Structure (SMILES) |
| --- | --- |
| 3 | COC(=O)Nc1cccc(-c2ccnc(N[C@@H]3CCCC[C@H]3N[C@H]3CCCN(c4ccc(C(F)(F)F)cc4)C3)c2)c1 [Example 132] |
| 1 | CNC(=O)c1cccc(-c2ccnc(N[C@@H]3CCCC[C@H]3N[C@H]3CCCN(c4ccc(C(F)(F)F)cc4)C3)c2)c1 [Example 130] |
| 27 | CC(C)(O)Cc1cccc(-c2ccnc(N[C@@H]3CCCC[C@H]3N[C@H]3CCCN(c4ccc(C(F)(F)F)cc4)C3)c2)c1 [Example 189] |
| 50 | OCCc1ccccc1-c1ccnc(N[C@@H]2CCCC[C@H]2N[C@H]2CCCN(c3ccc(C(F)(F)F)cc3)C2)c1 [Example 156] |
| 1 | O=C(NC1CC1)c1cccc(-c2cnc(N[C@@H]3CCCC[C@H]3N[C@H]3CCCN(c4ccc(C(F)(F)F)cc4)C3)o2)c1 [Example 117] |
| 126 | FC(F)(F)Oc1ccc(-c2cnc(N[C@@H]3CCCC[C@H]3N[C@H]3C[C@@H]4C[C@H]3N(c3ccc(C(F)(F)F)cc3)C4)o2)cc1 [Example 181] |
| 192 | O=C(NC1CCCC1)c1cccc(-c2ccnc(N[C@@H]3CCCC[C@H]3N[C@H]3CCCN(c4ccc(C(F)(F)F)cc4)C3)c2)c1 [Example 150] |
| 58 | CCNCc1cccc(-c2ccnc(N[C@@H]3CCCC[C@H]3N[C@H]3CCCN(c4ccc(C(F)(F)F)cc4)C3)c2)c1 [Example 142] |
